Tested on: different microbes (Bacillus cereus, Staphylococcus aureus, Pseudomonas aeruginosa, Escherichia coli, Aspergillus flavus, Chrysosporium keratinophilum)
Test: Antimicrobial testing, agar plate disc-diffusion method
Type: cell-based
Conditions: screened against gram-positive and gram-negative bacteria and fungi; result in words only, no inhibition zones printed
Experimental: The agar plate disc-diffusion method was applied. Sterilized filter papers (6 mm in diameter) were wetted with 10 μL of a solution of 4-(4,5-bis(4-bromophenyl)-2-(4-chlorophenyl)-1H-imidazol-1-yl)butanoic acid (V) to be tested, containing 10 mg/mL in DMSO, and the discs were allowed to air dry. The discs were then placed onto the surface of agar plates (nutrient agar for bacteria and Sabouraud's dextrose agar for fungi) seeded with the test organism. Each plate contained 15 mL of the agar medium, previously seeded with 0.2 mL of the broth culture of each organism pregrown for 18 hours. The plates were incubated at 37° C. for 48 hours, and 72 hours for fungi. The inhibition zones was measured in mm. Discs impregnated with DMSO were used as a control, and its inhibition zone was subtracted from the tested compound actual inhibition zone.

## O=C(O)CCCn1c(-c2ccc(Cl)cc2)nc(-c2ccc(Br)cc2)c1-c1ccc(Br)cc1 [V, 4-(4,5-bis(4-bromophenyl)-2-(4-chlorophenyl)-1H-imidazol-1-yl)butanoic acid]
  antimicrobial activities against different microbes: excellent antimicrobial activities

Source: patent US11981642B1, “4-(4,5-bis(4-bromophenyl)-2-(4-chlorophenyl)-1H-imidazol-1-yl)butanoic acid as an antimicrobial compound” (priority 2023, dated 2024)
